Results taken from a melting point compilation (Tetko et al.; mined from patent text by program, amines drawn as free bases though some values may be those of a salt).

SMILES | melting point
N#CC1(Nc2ccccc2)CCN(C2CCC(c3ccc(F)cc3)(c3ccc(F)cc3)CC2)CC1 | 139 to 140 °C
COc1cc(C)nc(NC(=O)NS(=O)(=O)c2cccnc2Cl)n1 | 165 to 168 °C
CCCc1c(OCc2ccc(C(=O)NCCCCc3cccnc3)cc2)ccc(C(C)=O)c1O | 91 to 95 °C
Cn1nnc(-c2ccc3[nH]cc(C4=CCN(CCN5CCNC5=O)CC4)c3c2)n1 | 249 to 252 °C
COC(=O)c1cc(CCC2CNc3nc(NC(=O)C(C)(C)C)nc(O)c3C2)c[nH]1 (stereo not drawn) | 236 to 238 °C
C=CCCCn1ncc2c(OCC)c(C(=O)OCC)cnc21 | 61 to 62 °C
O=C1c2c(ccc(F)c2Cl)-n2cnc(-c3cccc(Cl)c3)c2[C@@H]2CCCN12 | 238 to 239 °C
Nc1ncccc1OCc1c(F)ccc(F)c1F | 108 to 110 °C
O=Cc1c[nH]c2c1ccc1c3cccc(F)c3[nH]c12 | > 250 °C
O=C1C(Cc2ccccc2)NC(=S)N1c1nc(C(F)(F)F)cs1 (stereo not drawn) | 187 to 189 °C
Cc1c(NC(=O)c2ccc(CC(=O)C(C)C)cc2)ccc2cc(CN3CCCC3)cnc12 | 146 to 147 °C
Cc1ccc(C(F)(F)F)c2sc(Sc3ccc4c(c3)CCC3N(C)C(=O)CCC43C)nc12 (single isomer, unassigned; (+)) | 50 to 54 °C
CC(C)(C)OC(=O)NC(CO)c1ccc(F)cc1 (stereo not drawn) | 85 to 86 °C
CCCCc1ccc(-c2[nH]nc3c2C(=O)c2c(NC(C)=O)cccc2-3)cc1 | 259 °C
ON=Cc1cc(Br)ccc1OCc1ccccc1 | 132 to 134 °C
Cc1noc(NS(=O)(=O)c2ccccc2-c2ccc(-c3ncco3)cc2CN2CCN(c3ccccc3)C2=O)c1C | 140 to 150 °C
Cn1ccnc1Sc1ccc(I)cc1Cl | 99 to 101 °C
NC(=O)CCC(=NNC(N)=S)c1ccccc1 | 186 to 188 °C
O=CNNC(C(=O)O)c1ccccc1 (stereo not drawn) | 137 °C
CC1(C)CC(NCCCCCCC(=O)O)CC(C)(C)N1 | 162 to 165 °C
CCN(C(=O)C1(C(=O)O)CC1)c1ccc(Cl)cc1 | 99 to 101 °C
C1=C(c2coc3ccccc23)N2CCCN=C2S1 | 128 to 130 °C
COC(=O)C=CC(=O)c1cc(F)ccc1N | 80 to 84 °C
Cc1ccc(NC(=O)c2ccc(CN(C)C)c(C(F)(F)F)c2)cc1-c1ccc2cnncc2c1 | 240 to 241 °C
O=S(=O)(c1ccccc1)n1c2cc(O)c(O)cc2c2cc(O)c(O)cc21 | 240 to 241 °C

SMILES | melting point
COc1cc(OC)nc(N=C=S)n1 | 85 to 86 °C
CC(Oc1ccc([N+](=O)[O-])cc1[N+](=O)[O-])C(=O)O (stereo not drawn) | 167 to 171 °C
C1=CCC(C2CCCCCCC2)N=NC(C2CCCCCCC2)CC=CCC1 (stereo not drawn) | 62 to 63 °C
C=CCCn1c2ccc(OC)cc2c2c3c(c(-c4ccccc4Cl)cc21)C(=O)N(Cc1ccc(OC)cc1OC)C3=O | 161 to 164 °C
COC1OC(=O)C(OC)(OC)C1Cl (stereo not drawn) | 90 °C
BrCc1ccc2nc(-c3ccccc3)ccc2c1 | 126 to 127 °C
CC(C)(C)c1cc(Cl)ccc1N1CCN(C(=O)C(=O)O)CC1 | 154 to 155 °C
CCN1CC(OCC=C(C)C)(C(F)(F)F)c2cc(Cl)ccc2NC1=O (stereo not drawn) | 158 to 160 °C
CCON=C(C(=O)OC)c1nccc(N)n1 | 105 to 110 °C
Clc1ccccc1C(c1ccccc1)(c1ccccc1)n1cccn1 | 135 °C
CCCc1nc(C)c(C(=O)OCC)n1Cc1ccc2oc(-c3ccccc3NS(=O)(=O)C(F)(F)F)c(Br)c2c1 | 123 to 125 °C
C=CCN1CC(c2ccccc2)=C(OCCN(C)C)C1=O | 115 to 117 °C
CCCN(C=Cc1ccc([N+](=O)[O-])c2[nH]ncc12)CCC | 166 to 167 °C
CCS(=O)c1nn(-c2ccccc2)c(=O)c2c(N)scc12 (stereo not drawn) | 204 to 205 °C
CC(C)(C)C(=O)OCCc1c(-c2ccccc2)nc(N)n2ncnc12 | 160 °C
COc1cc2c(cc1F)C(=Cc1ccc(SC)cc1)C(C)=C2CC(=O)O | 172 to 174 °C
CCOc1c(Nc2cccnc2)c(=O)c1=O | 140 to 145 °C
COc1cc(C=C(C#N)C(=O)NCCC(C)NC(=O)C(C#N)=Cc2cc(O)c(O)c(OC)c2)cc(O)c1O (stereo not drawn) | > 300 °C
COc1nc2cc([N+](=O)[O-])c(C)c(C(=O)N[C@@H](Cc3ccccc3)C(=O)OC(C)(C)C)c2nc1OC | 86 to 88 °C
O=C(O)c1ccccc1Nc1ccc(CCc2ccc(O)c(O)c2)cc1 | 215 to 217 °C
Nc1nc2c(sc(=O)n2CCCCO)c(=O)[nH]1 | 258 to 260 °C
CCOC(=O)Cn1cc(Cl)cnc1=O | 175 to 177 °C
CN1CCN(c2cc([N+](=O)[O-])ccc2Br)CC1 | 100 to 103 °C
CCOC(=O)C(C)(C)n1c(=O)[nH]c2ccc([N+](=O)[O-])cc2c1=O | 184 to 185 °C
CCCCc1ncc(CC(=O)NCC(=O)O)n1Cc1ccccc1Cl | 84 to 88 °C

SMILES | melting point
NC1CN(c2cc3c(cc2F)c(=O)c(C(=O)O)cn3C2CC2)C1 | 246 to 247 °C
Nc1cc(=O)n(Cc2ccc3ccccc3c2)[nH]1 | 156 to 157 °C
CN(C)[C@@H]1Cc2cccc(O)c2C[C@H]1O (relative stereo) | 168 to 170 °C
Cc1cccc(NC(=O)NC2N=C(C3CCCCC3)c3cccc(C)c3N(C)C2=O)c1 (stereo not drawn) | 196 to 198 °C
O=C(c1cccnc1Cl)N1CCN=C1Cc1ccccc1Cl | 128 to 130 °C
CCc1c(CO)oc2ccc(Br)cc12 | 93 to 94 °C
Cc1ccc(-c2cc(N3CCCC3)c(C#N)c3c2-c2ccccc2C3)cc1 | 182 to 184 °C
O=C(O)Cc1ccc(OCc2ccc3oc([N+](=O)[O-])c(-c4ccccc4)c3c2)cc1 | 179 to 180 °C
CSc1noc(-c2ccc(OCCOc3ccc(C)cc3)cc2)c1C#N | 139 to 140 °C
O=C(O)CCCn1c(=O)n2n(c1=O)C(C(=O)O)C=CC2 (stereo not drawn) | 130 °C
COC(=O)[C@H](Cc1c(Br)[nH]c2cc(Br)c(OC)cc12)NC(C)=O | 174 to 175 °C
CC#CCOc1ccc(S(=O)(=O)N(C)c2c(C(=O)OCC)cnc3onc(C)c23)cc1 | 85 to 90 °C
CCNc1cccnc1N1CCN(C(=O)c2ccc(C(=O)NCc3ccccn3)cn2)CC1 | 129 to 131 °C
C=CCNc1nc(NCC=C(C)C)c2scc(C)c2n1 | 114 to 115 °C
O=C(c1ccc([N+](=O)[O-])c(OCc2ccc(-c3ccccc3-c3nnnn3C(c3ccccc3)(c3ccccc3)c3ccccc3)cc2)c1)N1CCOCC1 | 188 to 190 °C
Cc1ccc2c(-c3cc(C(C)(C)C)c(O)c(C(C)(C)C)c3)nn(CCO)c2n1 | 183 to 185 °C
CCCOc1cc2c(cc1OC)C(c1ccc(OC)c(OC)c1)=NN=C(C)C2CC (stereo not drawn) | 110 to 112 °C
CCOc1nc(=O)n([C@H]2CS[C@@H](CO)O2)cc1F (relative stereo) | 162 to 164 °C
O=c1c2cc(F)c(N3CCCC3)nc2n(C2CC2)c(=O)n1OCc1ccccc1 | 184 to 186 °C
Cc1ccc(C(=O)N(C)C)cc1-c1nc(NCCN(C)C)nc2c1CNC(=O)N2c1c(F)cccc1F | 138 to 142 °C
CC(=O)Nc1nc(CO)c(Cl)s1 | 145 to 146 °C
CCCCCCCCNC1=CC(=O)c2c(OC)ccc(OC)c2C1=O | 81 to 82 °C
CCOC(=O)CN1CCc2c(sc(N)c2C(=O)c2ccc(Cl)cc2)C1 | 105 to 106 °C
Nc1ccccc1C(=O)NC(=O)Nc1ccc(Oc2ncc(Br)cn2)c(Cl)c1 | 196 to 200 °C
CCCCOC1OC(CO)C(O)C(O)C1(O)N(CC)C(=O)N(CCCl)N=O (stereo not drawn) | 87 to 89 °C

SMILES | melting point
Cn1cc(-c2cc3cccnc3[nH]2)c2ccc(C(=O)Nc3nc[nH]n3)cc21 | 343 to 345 °C
O=C(CC(NC(=O)COc1ccccc1)c1ccccc1)Nc1n[nH]c(=S)s1 (stereo not drawn) | 225 to 226 °C
CCOC(=O)C(OCOc1ccc(-c2ccc(Cl)cc2)cc1)(C(F)(F)F)C(F)(F)F | 42 to 43 °C
COC(=O)c1cc(-c2ccc(S(C)(=O)=O)cc2)n(C2CCCCCC2)n1 | 115 to 117 °C
COC(=O)C1Cc2cccc(OC)c2N1S(=O)(=O)c1ccc(I)cc1 (stereo not drawn) | 161 °C
CCCCOC1c2ccccc2C(=O)N(CC2CC2)C1(/C=C/C(=O)O)CNC(=O)OC(C)(C)C (stereo not drawn) | 229 to 230 °C
CCCCCC(O)C=CC1C(O)CC(O)C1CCCCCCC(=O)O (stereo not drawn) | 98 to 100 °C
N#Cc1ccc(C(=O)c2ccc(F)cc2)c(CO)c1 | 85 °C
CCS(=O)(=O)ON=C(Cl)c1ccc(F)cc1 | 39 to 41.5 °C
COc1ccc2nc(Cl)nc(Nc3ccccc3)c2c1 | 177 to 179 °C
COc1ccc(-c2cc(C(N)=O)c(=O)n(CC=Cc3ccccc3)n2)cc1 | 184 to 186 °C
Nc1nc(Cl)cc(NC(CO)C2C=CCC2)n1 (stereo not drawn) | 201 to 203 °C
Cn1c(=O)c(-c2c(Cl)cccc2Cl)cc2cnc(NCCc3ccccn3)nc21 | 173 to 174 °C
O=C1c2ccccc2-n2cnc(C=NO)c2[C@@H]2CCCN12 | 285 °C
COc1cc(OC)cc(-c2nc[nH]c2-c2ccc(OC)c(O)c2O)c1 | 132 to 134 °C
Fc1ccc(Cl)c(-c2c(Cl)nc3ncnn3c2Cl)c1 | 137 °C
CCCS(=O)(=O)Nc1cccc(C)c1C(N)c1cccn2c(C)c(C)nc12 (stereo not drawn) | 245 to 248 °C
CCNC(=O)NC(CC)c1ccc(Cl)c2nc3n(c12)CCCN3c1ccc(Cl)cc1Cl (stereo not drawn) | 250 to 252 °C
Cn1cc(C2=C(c3cn(C)c4cc([N+](=O)[O-])ccc34)C(=O)N(COP(=O)(OCc3ccccc3)OCc3ccccc3)C2=O)c2ccccc21 | 105 to 109 °C
C=C(C)C(=O)Nc1ccc(-n2nc(C(F)(F)F)cc2C(F)(F)F)cc1 | 160 to 162 °C
CCc1cncc(-c2nc(C(=O)N(C)C)c3c4ccc(Cl)cc4n(C)c3n2)c1 | 218 to 219 °C
O=C1c2ccc([N+](=O)[O-])cc2C(=O)N1c1ccc(C2(c3ccc(N4C(=O)c5ccc([N+](=O)[O-])cc5C4=O)cc3)c3ccccc3-c3ccccc32)cc1 | 360 to 363 °C
O=C(C=Cc1ccc(F)cc1)c1c(F)c(F)c(F)c(F)c1F | 80 to 84 °C
